Earlier results, collected in paper PMC11345828 (Journal of Medicinal Chemistry, 2024).

Details: mouse, in vivo; cited from earlier work

## Cc1c(-c2c(-c3ccc(F)o3)sc3ncnc(O[C@H](Cc4ccccc4OCc4ccnn4CC(F)(F)F)C(=O)O)c23)ccc(OCCN2CCN(C)CC2)c1Cl [Compound S63845]
  maximum tolerated dose lower than in wild-type mice: ~3 fold
